# Experimental data from patent US20090062369A1, “USE OF SECRETORY PHOSPHOLIPASE A2 (SPLA2) INHIBITORS TO DECREASE SPLA2 LEVELS” (priority 2007, published 2009).
# Tested on: serum sPLA2
# Assay: Effect of twice-a-day oral A-002 on serum sPLA2 levels in subjects with stable coronary artery disease (Example 6)
# Assay type: in vivo, human
# Experimental: The protocol for preparing standard curve, test, and quality control samples for use in the assay disclosed herein is set forth in Example 5. Samples are prepared according to this protocol, then loaded in duplicate onto a plate (Cayman catalog no. 485002 or equivalent) that has been pre-coated with a monoclonal sPLA2 antibody (“capture antibody”) that specifically binds sPLA2. In certain embodiments, the capture antibody may interact with a specific form of sPLA2, such as for example sPLA2 type IIA.
# sPLA2 acetylcholinesterase:Fab′ conjugate (AChE:Fab′) (“conjugate”) (Cayman catalog no. 485000 or equivalent) is reconstituted in EIA buffer (Cayman catalog no. 400060 or equivalent). Cayman EIA buffer is 1M phosphate, pH 7.0, 1% BSA, 4M NaCl, 10 mM EDTA, and 0.1% sodium azide. Reconstituted conjugate is added to each well of the plate. The conjugate binds a different sPLA2 epitope than the capture antibody, allowing the capture antibody and the conjugate to form a “sandwich” that is immobilized on the plate. Excess reagents are washed away, and the plate is covered and incubated overnight at 2-8° C.
# Prior to development, the wells are washed five to six times with wash buffer (Cayman catalog no. 400062 or equivalent). To develop the plate, Ellman's Reagent (Cayman catalog no. 400050 or equivalent) is reconstituted in water and added to each well according to manufacturer instructions. The reconstituted Ellman's Reagent must be used the same day it is prepared because it is unstable. Ellman's Reagent contains an AChE substrate. Specifically, Ellman's Reagent contains acetylthiocholine and 5,5′-dithio-bis-(2-nitrobenzoic acid). Hydrolysis of acetylthiocholine by acetylcholinesterase produces thiocholine, which reacts with 5,5′-dithio-bis-(2-nitrobenzoic acid) to produce 5-thio-2-nitrobenzoic acid. 5-thio-2-nitrobenzoic acid has a strong absorbance at 412 nm. The intensity of absorbance at this wavelength is directly proportional to the concentration of bound conjugate, which is in turn is directly proportional to the concentration of sPLA2 present (Absorbance a [AChE:Fab′ conjugate] α [sPLA2]). During the development step, the plate is shaken, preferably in the dark. In certain embodiments the development time for the assay is 0.5 to 3 hours, preferably 1 to 1.5 hours. At the end of the development period, the high sPLA2 standards should have greater yellow color development than the zero standards. Absorbance of each well is measured at 400-420 nm using a micro-well plate reader. In certain embodiments, absorbance is measured at about 405 nm.
# Absorbance readings for duplicate wells are averaged, and the relative standard deviation and % CV are calculated. Standard curve data are used to generate a four parameter curve, and quality control and test samples are measured against the appropriate standard curve (i.e., the standard curve with the same serum content). In order for a test to be considered valid, variation between duplicate wells should be no more than about 25%, and negative controls (blanks) for each standard curve should have a mean absorbance of less than about 0.3.
# The method disclosed herein for measuring sPLA2 levels in serum was utilized to determine the effect of administering certain sPLA2 inhibitors on sPLA2 levels in 84 human subjects. The subjects included 24 subjects with diabetes, 32 subjects with metabolic syndrome, and 75 subjects receiving statin treatment. Subjects were administered the sPLA2 inhibitor A-002, a prodrug form of A-001, twice a day at varying dosages from 50 to 500 mg. The structures of A-002and A-001 are set forth below. At two weeks and four weeks after the first administration, sPLA2 levels were measured and compared to pre-administration baseline levels.
# 84 subjects with stable coronary artery disease were randomized to receive placebo or A-002 via oral administration twice a day over a four week administration period. […]
# [1] = 100 mg, statin subgroup of ITT population
# [2] = 250 mg, diabetes subgroup of ITT population
# [3] = 250 mg, non-diabetes subgroup of ITT population
# [4] = 250 mg, statin subgroup of ITT population
# [5] = 500 mg, diabetes subgroup of ITT population
# [6] = 500 mg, non-diabetes subgroup of ITT population
structure (smiles),measurement,setting,value
"CCc1c(C(=O)C(N)=O)c2c(OCC(=O)OC)cccc2n1Cc1ccccc1 [A-002, [[3-(2-Amino-1,2-dioxoethyl)-2-ethyl-1-(phenylmethyl)-1H-indol-4-yl]oxy]acetic acid methyl ester]","sPLA2 Change from baseline at week 4, Range",[1],-5.70 to 0.00 ng/mL
same,"sPLA2 level, Baseline, Mean",[1],2.72 ng/mL
same,"sPLA2 level, Baseline, Median",[1],2.65 ng/mL
same,"sPLA2 level, Baseline, Range",[1],0.05 to 6.00 ng/mL
same,"sPLA2 level, Week 2, Mean",[1],0.66 ng/mL
same,"sPLA2 level, Week 2, Median",[1],0.40 ng/mL
same,"sPLA2 level, Week 2, Range",[1],0.05 to 2.90 ng/mL
same,"sPLA2 level, Week 4, Mean",[1],0.44 ng/mL
same,"sPLA2 level, Week 4, Median",[1],0.40 ng/mL
same,"sPLA2 level, Week 4, Range",[1],0.05 to 1.00 ng/mL
same,"sPLA2 Change from baseline at week 2, Mean","250 mg, ITT population",-2.02 ng/mL
same,"sPLA2 Change from baseline at week 2, Median","250 mg, ITT population",-1.90 ng/mL
same,"sPLA2 Change from baseline at week 2, Range","250 mg, ITT population",-4.20 to -0.20 ng/mL
same,"sPLA2 Change from baseline at week 4, Mean","250 mg, ITT population",-2.13 ng/mL
same,"sPLA2 Change from baseline at week 4, Median","250 mg, ITT population",-2.20 ng/mL
same,"sPLA2 Change from baseline at week 4, Range","250 mg, ITT population",-4.20 to 0.20 ng/mL
same,"sPLA2 level, Baseline, Mean","250 mg, ITT population",2.88 ng/mL
same,"sPLA2 level, Baseline, Median","250 mg, ITT population",2.40 ng/mL
same,"sPLA2 level, Baseline, Range","250 mg, ITT population",1.30 to 5.20 ng/mL
same,"sPLA2 level, Week 2, Mean","250 mg, ITT population",0.73 ng/mL
same,"sPLA2 level, Week 2, Median","250 mg, ITT population",0.35 ng/mL
same,"sPLA2 level, Week 2, Range","250 mg, ITT population",0.05 to 4.40 ng/mL
same,"sPLA2 level, Week 4, Mean","250 mg, ITT population",0.61 ng/mL
same,"sPLA2 level, Week 4, Median","250 mg, ITT population",0.35 ng/mL
same,"sPLA2 level, Week 4, Range","250 mg, ITT population",0.05 to 2.30 ng/mL
same,"sPLA2 Change from baseline at week 2, Mean",[2],-1.83 ng/mL
same,"sPLA2 Change from baseline at week 2, Median",[2],-1.10 ng/mL
same,"sPLA2 Change from baseline at week 2, Range",[2],-4.20 to -0.20 ng/mL
same,"sPLA2 Change from baseline at week 4, Mean",[2],-1.75 ng/mL
same,"sPLA2 Change from baseline at week 4, Median",[2],-1.25 ng/mL
same,"sPLA2 Change from baseline at week 4, Range",[2],−4.20 to +0.20 ng/ml
same,"sPLA2 level, Baseline, Mean",[2],3.00 ng/mL
same,"sPLA2 level, Baseline, Median",[2],3.00 ng/mL
same,"sPLA2 level, Baseline, Range",[2],1.30 to 4.70 ng/mL
same,"sPLA2 level, Week 2, Mean",[2],0.60 ng/mL
same,"sPLA2 level, Week 2, Median",[2],0.50 ng/mL
same,"sPLA2 level, Week 2, Range",[2],0.20 to 1.10 ng/mL
same,"sPLA2 level, Week 4, Mean",[2],0.68 ng/mL
same,"sPLA2 level, Week 4, Median",[2],0.50 ng/mL
same,"sPLA2 level, Week 4, Range",[2],0.05 to 1.50 ng/mL
same,"sPLA2 Change from baseline at week 2, Mean",[3],-2.08 ng/mL
same,"sPLA2 Change from baseline at week 2, Median",[3],-2.00 ng/mL
same,"sPLA2 Change from baseline at week 2, Range",[3],-3.80 to -0.80 ng/mL
same,"sPLA2 Change from baseline at week 4, Mean",[3],-2.25 ng/mL
same,"sPLA2 Change from baseline at week 4, Median",[3],-2.20 ng/mL
same,"sPLA2 Change from baseline at week 4, Range",[3],-3.50 to -1.20 ng/mL
same,"sPLA2 level, Baseline, Mean",[3],2.84 ng/mL
same,"sPLA2 level, Baseline, Median",[3],2.40 ng/mL
same,"sPLA2 level, Baseline, Range",[3],1.50 to 5.20 ng/mL
same,"sPLA2 level, Week 2, Mean",[3],0.76 ng/mL
same,"sPLA2 level, Week 2, Median",[3],0.30 ng/mL
same,"sPLA2 level, Week 2, Range",[3],0.05 to 4.40 ng/mL
same,"sPLA2 level, Week 4, Mean",[3],0.60 ng/mL
same,"sPLA2 level, Week 4, Median",[3],0.30 ng/mL
same,"sPLA2 level, Week 4, Range",[3],0.05 to 2.30 ng/mL
same,"sPLA2 Change from baseline at week 2, Mean",[4],-2.01 ng/mL
same,"sPLA2 Change from baseline at week 2, Median",[4],-1.65 ng/mL
same,"sPLA2 Change from baseline at week 2, Range",[4],-4.20 to -0.20 ng/mL
same,"sPLA2 Change from baseline at week 4, Mean",[4],-2.13 ng/mL
same,"sPLA2 Change from baseline at week 4, Median",[4],-2.15 ng/mL
same,"sPLA2 Change from baseline at week 4, Range",[4],−4.20 to +0.20 ng/ml
same,"sPLA2 level, Baseline, Mean",[4],2.84 ng/mL
same,"sPLA2 level, Baseline, Median",[4],2.40 ng/mL
same,"sPLA2 level, Baseline, Range",[4],1.30 to 5.20 ng/mL
same,"sPLA2 level, Week 2, Mean",[4],0.68 ng/mL
same,"sPLA2 level, Week 2, Median",[4],0.30 ng/mL
same,"sPLA2 level, Week 2, Range",[4],0.05 to 4.40 ng/mL
same,"sPLA2 level, Week 4, Mean",[4],0.57 ng/mL
same,"sPLA2 level, Week 4, Median",[4],0.30 ng/mL
same,"sPLA2 level, Week 4, Range",[4],0.05 to 2.30 ng/mL
same,"sPLA2 Change from baseline at week 2, Mean","500 mg, ITT population",-2.84 ng/mL
same,"sPLA2 Change from baseline at week 2, Median","500 mg, ITT population",-2.95 ng/mL
same,"sPLA2 Change from baseline at week 2, Range","500 mg, ITT population",-4.80 to -0.55 ng/mL
same,"sPLA2 Change from baseline at week 4, Mean","500 mg, ITT population",-2.87 ng/mL
same,"sPLA2 Change from baseline at week 4, Median","500 mg, ITT population",-2.95 ng/mL
same,"sPLA2 Change from baseline at week 4, Range","500 mg, ITT population",-4.80 to -0.55 ng/mL
same,"sPLA2 level, Baseline, Mean","500 mg, ITT population",2.96 ng/mL
same,"sPLA2 level, Baseline, Median","500 mg, ITT population",2.80 ng/mL
same,"sPLA2 level, Baseline, Range","500 mg, ITT population",0.60 to 5.40 ng/mL
same,"sPLA2 level, Week 2, Mean","500 mg, ITT population",0.18 ng/mL
same,"sPLA2 level, Week 2, Median","500 mg, ITT population",0.05 ng/mL
same,"sPLA2 level, Week 2, Range","500 mg, ITT population",0.05 to 0.60 ng/mL
same,"sPLA2 level, Week 4, Mean","500 mg, ITT population",0.15 ng/mL
same,"sPLA2 level, Week 4, Median","500 mg, ITT population",0.05 ng/mL
same,"sPLA2 level, Week 4, Range","500 mg, ITT population",0.05 to 0.60 ng/mL
same,"sPLA2 Change from baseline at week 2, Mean",[5],-3.75 ng/mL
same,"sPLA2 Change from baseline at week 2, Median",[5],-3.50 ng/mL
same,"sPLA2 Change from baseline at week 2, Range",[5],-4.80 to -2.95 ng/mL
same,"sPLA2 Change from baseline at week 4, Mean",[5],-3.82 ng/mL
same,"sPLA2 Change from baseline at week 4, Median",[5],-3.70 ng/mL
same,"sPLA2 Change from baseline at week 4, Range",[5],-4.80 to -2.95 ng/mL
same,"sPLA2 level, Baseline, Mean",[5],3.73 ng/mL
same,"sPLA2 level, Baseline, Median",[5],3.40 ng/mL
same,"sPLA2 level, Baseline, Range",[5],2.70 to 5.40 ng/mL
same,"sPLA2 level, Week 2, Mean",[5],0.32 ng/mL
same,"sPLA2 level, Week 2, Median",[5],0.30 ng/mL
same,"sPLA2 level, Week 2, Range",[5],0.05 to 0.60 ng/mL
same,"sPLA2 level, Week 4, Mean",[5],0.25 ng/mL
same,"sPLA2 level, Week 4, Median",[5],0.10 ng/mL
same,"sPLA2 level, Week 4, Range",[5],0.05 to 0.60 ng/mL
same,"sPLA2 Change from baseline at week 2, Mean",[6],-2.61 ng/mL
same,"sPLA2 Change from baseline at week 2, Median",[6],-2.68 ng/mL
same,"sPLA2 Change from baseline at week 2, Range",[6],-4.40 to -0.55 ng/mL
same,"sPLA2 Change from baseline at week 4, Mean",[6],-2.63 ng/mL
same,"sPLA2 Change from baseline at week 4, Median",[6],-2.53 ng/mL
same,"sPLA2 Change from baseline at week 4, Range",[6],-4.35 to -0.55 ng/mL
same,"sPLA2 level, Baseline, Mean",[6],2.73 ng/mL
same,"sPLA2 level, Baseline, Median",[6],2.70 ng/mL
same,"sPLA2 level, Baseline, Range",[6],0.60 to 4.60 ng/mL
same,"sPLA2 level, Week 2, Mean",[6],0.15 ng/mL
same,"sPLA2 level, Week 2, Median",[6],0.05 ng/mL
